The subject of experiment [1] is Lacrimal Gland Inflammation-Induced Dry Eye in Rabbits. Briefly: Lacrimal Gland Inflammation-Induced Dry Eye in Rabbits. The experiment is classed as in vivo. The following applies: 1 percent, topical ocular BID, rabbit dry eye. The source says:
A more detailed description of the assay used herein may be found in Naglehout, T J et al. 2005, “Preservation of Tear Film Integrity and Inhibition of Corneal Injury by Dexamethasone in a Rabbit Model of Lacrimal Gland Inflammation-Induced Dry Eye,” J. Ocular Pharm. Ther., 21:2. 139-148, the disclosure of which is hereby incorporated by reference as if written herein in its entirety.
Rabbits (n=4/group) were randomized into treatment groups and dosed topically BID with maxidex vehicle or test drug beginning one day prior to initiation of dry eye. Each rabbit received bilateral lacrimal gland injections of saline or ConA (300 μg/30 μl) and topical ocular dosing was continued BID throughout the study.
Desiccation was initiated 1-2 hours following lacrimal gland injection by placing conscious rabbits in the environmental chamber (10-15% humidity/72° F.). […] Absorbance of the extracted dye was determined at 660 nm.
TBUT was quantified in a separate group of treated animals. TBUT was determined by instilling 5 μL sodium fluorescein into the cul de sac and manually blinking the lids to distribute the fluorescein within the tear film. Under slit lamp observation, the eye was held open and the time whereby one or more black spots or streaks appeared in the precorneal tear film was recorded. […]

In a further experiment the target is T1, PDE4B (Homo sapiens, UniProt Q07343).
T1 construct: hex-histidine (His6) (N); made in house
T1 sequence (Q07343 330-659 limits assumed, species assumed): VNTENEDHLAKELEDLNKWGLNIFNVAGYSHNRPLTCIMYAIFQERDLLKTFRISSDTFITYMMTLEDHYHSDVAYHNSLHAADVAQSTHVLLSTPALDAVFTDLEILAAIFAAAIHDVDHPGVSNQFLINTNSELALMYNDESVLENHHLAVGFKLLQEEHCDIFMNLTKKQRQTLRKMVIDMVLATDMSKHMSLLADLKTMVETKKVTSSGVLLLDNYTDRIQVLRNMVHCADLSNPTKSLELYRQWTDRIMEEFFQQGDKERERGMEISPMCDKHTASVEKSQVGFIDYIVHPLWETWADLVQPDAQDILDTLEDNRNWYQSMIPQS
Nature of the experiment: Novel coupled PDE/AK bioluminescent assay, PDE4B inhibition. Format: biochemical. To be noted: PDE4B catalytic domain.

These results are taken from patent publication US7745646B2, “Bicyclic heteroaryl inhibitors of PDE4” (Kalypsys, Inc., priority 2006, dated 2010).

The IC50 is the concentration that gives 50% inhibition. Take `COc1ccc2c(Nc3c(Cl)cncc3Cl)cc(=O)oc2c1OC1CCCC1` [Example 3, 8-(Cyclopentyloxy)-4-(3,5-dichloropyridin-4-ylamino)-7-methoxy-2H-chromen-2-one]: the “Activity at Percent Concentration Tested” value in experiment [1] is reported as “Inactive”. Also, the concentration for half-maximal inhibition (IC50) against PDE4B is below 1000 nM. As for `COc1ccc2c(Nc3c(Cl)cncc3Cl)cc(=O)oc2c1OCC1CC1` [Example 5, 8-(Cyclopropylmethoxy)-4-(3,5-dichloropyridin-4-ylamino)-7-methoxy-2H-chromen-2-one], the “Activity at Percent Concentration Tested” value in experiment [1] is given as “Inactive”. Also, on PDE4B, the IC50 was below 1000 nM. At PDE4B, `COc1ccc2c(Nc3c(Cl)cncc3Cl)cc(=O)oc2c1OCCCCCOP(=O)(O)O` [Example 104, 5-(4-(3,5-Dichloropyridin-4-ylamino)-7-methoxy-2-oxo-2H-chromen-8-yloxy)pentyl dihydrogen phosphate] displayed an IC50 below 1000 nM. `CNP(=O)(NC)OCCCCCOc1c(OC)ccc2c(Nc3c(Cl)cncc3Cl)cc(=O)oc12` [Example 105] registered an IC50 at PDE4B below 1000 nM.
